In brackets after ≈: the same amount, converted by molar mass. Where a SMILES comes first, the peptide text is derived from it. Bridges are numbered along the chain shown (N, C = ends). [ ]: non-standard residue; d: D form. The star is where a group is joined. Heptanoyl(6-Me) = CC(C)CCCCC(=O)*; Heptanoyl = CCCCCCC(=O)*; Dab = NCC[C@H](N)C(=O)O
Key:
Escherichia coli = assay: Antimicrobial activity against Escherichia coli; format: functional
Pseudomonas aeruginosa = assay: Antimicrobial activity against Pseudomonas aeruginosa; format: functional, organism-based
Lipopolysaccharide (LPS) = assay: Displacement of dansyl-PMB from LPS by isothermal titration calorimetry
Salmonella enterica = assay: Antimicrobial activity against Salmonella enterica; format: functional

Row | MIC (Escherichia coli) [µM] | MIC (Pseudomonas aeruginosa) [µM] | IC50 (Lipopolysaccharide (LPS)) | MIC (Salmonella enterica) [µM] | SMILES
1 | 1 (≈ 1.19 µg/mL) | 1 (≈ 1.19 µg/mL) | 9 µM | 1 (≈ 1.19 µg/mL) | CC(C)CCCCC(=O)N[C@@H](CCN)C(=O)N[C@H](C(=O)N[C@@H](CCN)C(=O)N[C@H]1CCNC(=O)[C@H]([C@@H](C)O)NC(=O)[C@H](CCN)NC(=O)[C@H](CCN)NC(=O)[C@H](CC(C)C)NC(=O)[C@@H](Cc2ccccc2)NC(=O)[C@H](CCN)NC1=O)[C@@H](C)O [POLYMYXIN B2] ({Heptanoyl(6-Me)}-[Dab]T[Dab][Dab][Dab][dF]L[Dab][Dab]T; lactam 4-C)
2 | 0.5 (≈ 0.595 µg/mL) | 1 (≈ 1.19 µg/mL) | 8 µM | 0.5 (≈ 0.595 µg/mL) | CCCCCCCC(=O)N[C@@H](CCN)C(=O)N[C@H](C(=O)N[C@@H](CCN)C(=O)N[C@H]1CCNC(=O)[C@@H]([C@@H](C)O)NC(=O)[C@H](CCN)NC(=O)[C@H](CCN)NC(=O)[C@H](CC(C)C)NC(=O)[C@@H](Cc2ccccc2)NC(=O)[C@H](CCN)NC1=O)[C@@H](C)O [POLYMYXIN B3]
3 | 0.5 (≈ 0.588 µg/mL) | 0.5 (≈ 0.588 µg/mL) | 10 µM | 0.5 (≈ 0.588 µg/mL) | CCCCCCC(=O)N[C@@H](CCN)C(=O)N[C@H](C(=O)N[C@@H](CCN)C(=O)N[C@H]1CCNC(=O)[C@H]([C@@H](C)O)NC(=O)[C@H](CCN)NC(=O)[C@H](CCN)NC(=O)[C@H](CC(C)C)NC(=O)[C@@H](Cc2ccccc2)NC(=O)[C@H](CCN)NC1=O)[C@@H](C)O [POLYMYXIN B4] (Heptanoyl-[Dab]T[Dab][Dab][Dab][dF]L[Dab][Dab]T; lactam 4-C)

Further lines, the compound ahead of its results:

Row | SMILES | MIC (Escherichia coli) [µM] | MIC (Pseudomonas aeruginosa) [µM] | IC50 (Lipopolysaccharide (LPS)) | MIC (Salmonella enterica) [µM]
4 | CC(C)C[C@@H]1NC(=O)[C@@H](Cc2ccccc2)NC(=O)[C@H](CCN)NC(=O)[C@@H](NC(=O)[C@H](CCN)NC(=O)[C@@H](NC(=O)[C@H](CCC(=O)O)NC(=O)O)[C@@H](C)O)CCNC(=O)[C@H]([C@@H](C)O)NC(=O)[C@H](CCN)NC(=O)[C@H](CCN)NC1=O [DESFA-[GLU1]POLYMYXIN B] | ≥ 256 | 256 (≈ 291 µg/mL) | >= 32 nmol/ml | > 256
5 | CC(C)C[C@H](NC(=O)O)C(=O)N[C@H](C(=O)N[C@@H](CCN)C(=O)N[C@H]1CCNC(=O)[C@H]([C@@H](C)O)NC(=O)[C@H](CCN)NC(=O)[C@H](CCN)NC(=O)[C@H](CC(C)C)NC(=O)[C@@H](Cc2ccccc2)NC(=O)[C@H](CCN)NC1=O)[C@@H](C)O [DESFA-[LEU1]POLYMYXIN B] | 16 (≈ 17.9 µg/mL) | 64 (≈ 71.7 µg/mL) | >= 32 nmol/ml | 32 (≈ 35.9 µg/mL)
6 | CC(C)C[C@@H]1NC(=O)[C@@H](Cc2ccccc2)NC(=O)[C@H](CCN)NC(=O)[C@@H](NC(=O)[C@H](CCN)NC(=O)[C@@H](NC(=O)[C@H](CCCCN)NC(=O)O)[C@@H](C)O)CCNC(=O)[C@H]([C@@H](C)O)NC(=O)[C@H](CCN)NC(=O)[C@H](CCN)NC1=O [DESFA-[LYS1]POLYMYXIN B] | 16 (≈ 18.2 µg/mL) | 32 (≈ 36.3 µg/mL) | 22 µM | 32 (≈ 36.3 µg/mL)
7 | CC(C)C[C@@H]1NC(=O)[C@@H](Cc2ccccc2)NC(=O)[C@H](CCN)NC(=O)[C@@H](NC(=O)[C@H](CCN)NC(=O)[C@@H](NC(=O)[C@H](Cc2ccccc2)NC(=O)O)[C@@H](C)O)CCNC(=O)[C@H]([C@@H](C)O)NC(=O)[C@H](CCN)NC(=O)[C@H](CCN)NC1=O [DESFA-[PHE1]POLYMYXIN B] | 8 (≈ 9.23 µg/mL) | 16 (≈ 18.5 µg/mL) | >= 32 nmol/ml | 8 (≈ 9.23 µg/mL)
8 | CC(C)C[C@@H]1NC(=O)[C@@H](Cc2ccccc2)NC(=O)[C@H](CCN)NC(=O)[C@@H](NC(=O)[C@H](CCN)NC(=O)[C@@H](NC(=O)[C@H](CO)NC(=O)O)[C@@H](C)O)CCNC(=O)[C@H]([C@@H](C)O)NC(=O)[C@H](CCN)NC(=O)[C@H](CCN)NC1=O [DESFA-[SER1]POLYMYXIN B] | 64 (≈ 70 µg/mL) | 1 (≈ 1.09 µg/mL) | >= 32 nmol/ml | 64 (≈ 70 µg/mL)

From ChEMBL document CHEMBL1156251, “Structure--activity relationships of polymyxin antibiotics” (J Med Chem, 2010)
